From the NIST ThermoML archive (doi:10.1016/j.fluid.2019.03.023)
± gives the expanded uncertainty stated by the source.

Experiment: activity coefficient (dimensionless); of the first substance listed, at infinite dilution; xn = mol fraction of the nth substance listed
Conditions: 101.33 kPa, Liquid, Chromatography, x1 = 0

SMILES	activity coefficient (313.15 K)	activity coefficient (323.15 K)	activity coefficient (333.15 K)	activity coefficient (343.15 K)
Cc1ccccc1C [1,2-dimethylbenzene] + CCCCCCCCCCCCCC[P+](CCCCCC)(CCCCCC)CCCCCC.N#C[N-]C#N	0.525 ± 0.057	0.566 ± 0.061	0.613 ± 0.065	0.651 ± 0.069
Cc1cccc(C)c1 [1,3-dimethylbenzene] + CCCCCCCCCCCCCC[P+](CCCCCC)(CCCCCC)CCCCCC.N#C[N-]C#N	0.633 ± 0.067	0.654 ± 0.069	0.689 ± 0.072	0.716 ± 0.075
Cc1ccc(C)cc1 [1,4-dimethylbenzene] + CCCCCCCCCCCCCC[P+](CCCCCC)(CCCCCC)CCCCCC.N#C[N-]C#N	0.602 ± 0.064	0.64 ± 0.068	0.68 ± 0.071	0.706 ± 0.074
C=CCCCCCCCC [1-decene] + CCCCCCCCCCCCCC[P+](CCCCCC)(CCCCCC)CCCCCC.N#C[N-]C#N	1.58 ± 0.17	1.77 ± 0.18	1.98 ± 0.21	2.19 ± 0.23
C=CCCCCC [1-heptene] + CCCCCCCCCCCCCC[P+](CCCCCC)(CCCCCC)CCCCCC.N#C[N-]C#N	1.09 ± 0.11	1.13 ± 0.12	1.17 ± 0.12	1.22 ± 0.13
C#CCCCCC [1-heptyne] + CCCCCCCCCCCCCC[P+](CCCCCC)(CCCCCC)CCCCCC.N#C[N-]C#N	0.485 ± 0.054	0.57 ± 0.061	0.644 ± 0.068	0.721 ± 0.075
C#CCCCC [1-hexyne] + CCCCCCCCCCCCCC[P+](CCCCCC)(CCCCCC)CCCCCC.N#C[N-]C#N	0.442 ± 0.05	0.513 ± 0.056	0.593 ± 0.063	0.669 ± 0.07
C=CCCCCCCC [1-nonene] + CCCCCCCCCCCCCC[P+](CCCCCC)(CCCCCC)CCCCCC.N#C[N-]C#N	1.41 ± 0.15	1.53 ± 0.16	1.67 ± 0.17	1.82 ± 0.19
C=CCCC [1-pentene] + CCCCCCCCCCCCCC[P+](CCCCCC)(CCCCCC)CCCCCC.N#C[N-]C#N	0.796 ± 0.082	0.858 ± 0.088	0.922 ± 0.094	0.994 ± 0.1
C#CCCC [1-pentyne] + CCCCCCCCCCCCCC[P+](CCCCCC)(CCCCCC)CCCCCC.N#C[N-]C#N	0.413 ± 0.048	0.465 ± 0.052	0.547 ± 0.059	0.619 ± 0.066
CCC(C)(C)C [2,2-dimethylbutane] + CCCCCCCCCCCCCC[P+](CCCCCC)(CCCCCC)CCCCCC.N#C[N-]C#N	1.11 ± 0.11	1.2 ± 0.12	1.28 ± 0.13	1.35 ± 0.14
CC(C)=O [acetone] + CCCCCCCCCCCCCC[P+](CCCCCC)(CCCCCC)CCCCCC.N#C[N-]C#N	0.35 ± 0.043	0.363 ± 0.044	0.383 ± 0.045	0.405 ± 0.047
CC#N [acetonitrile] + CCCCCCCCCCCCCC[P+](CCCCCC)(CCCCCC)CCCCCC.N#C[N-]C#N	0.574 ± 0.062	0.6 ± 0.064	0.624 ± 0.066	0.651 ± 0.069
c1ccccc1 [benzene] + CCCCCCCCCCCCCC[P+](CCCCCC)(CCCCCC)CCCCCC.N#C[N-]C#N	0.319 ± 0.04	0.363 ± 0.044	0.403 ± 0.047	0.44 ± 0.05
CCCCO [butan-1-ol] + CCCCCCCCCCCCCC[P+](CCCCCC)(CCCCCC)CCCCCC.N#C[N-]C#N	0.421 ± 0.048	0.445 ± 0.05	0.453 ± 0.051	0.47 ± 0.052
CCC(C)=O [butanone] + CCCCCCCCCCCCCC[P+](CCCCCC)(CCCCCC)CCCCCC.N#C[N-]C#N	0.422 ± 0.048	0.448 ± 0.051	0.478 ± 0.053	0.513 ± 0.056
C1CCCCC1 [cyclohexane] + CCCCCCCCCCCCCC[P+](CCCCCC)(CCCCCC)CCCCCC.N#C[N-]C#N	0.733 ± 0.076	0.78 ± 0.081	0.832 ± 0.085	0.901 ± 0.092

SMILES	activity coefficient (313.15 K)	activity coefficient (323.15 K)	activity coefficient (333.15 K)	activity coefficient (343.15 K)
C1=CCCCC1 [cyclohexene] + CCCCCCCCCCCCCC[P+](CCCCCC)(CCCCCC)CCCCCC.N#C[N-]C#N	0.647 ± 0.068	0.709 ± 0.074	0.76 ± 0.079	0.813 ± 0.084
C1CCCCCCC1 [cyclooctane] + CCCCCCCCCCCCCC[P+](CCCCCC)(CCCCCC)CCCCCC.N#C[N-]C#N	0.89 ± 0.091	0.928 ± 0.095	0.978 ± 0.099	1.05 ± 0.11
CCCCCCCCCC [decane] + CCCCCCCCCCCCCC[P+](CCCCCC)(CCCCCC)CCCCCC.N#C[N-]C#N	2.19 ± 0.23	2.34 ± 0.25	2.54 ± 0.27	2.74 ± 0.29
CCO [ethanol] + CCCCCCCCCCCCCC[P+](CCCCCC)(CCCCCC)CCCCCC.N#C[N-]C#N	0.339 ± 0.042	0.359 ± 0.043	0.383 ± 0.045	0.401 ± 0.047
CCc1ccccc1 [ethylbenzene] + CCCCCCCCCCCCCC[P+](CCCCCC)(CCCCCC)CCCCCC.N#C[N-]C#N	0.567 ± 0.061	0.606 ± 0.064	0.653 ± 0.069	0.7 ± 0.073
CCCCCCC [heptane] + CCCCCCCCCCCCCC[P+](CCCCCC)(CCCCCC)CCCCCC.N#C[N-]C#N	1.36 ± 0.14	1.43 ± 0.15	1.52 ± 0.16	1.61 ± 0.17
C=CCCCC [hex-1-ene] + CCCCCCCCCCCCCC[P+](CCCCCC)(CCCCCC)CCCCCC.N#C[N-]C#N	0.915 ± 0.093	0.979 ± 0.1	1.06 ± 0.11	1.11 ± 0.11
CCCCCC [hexane] + CCCCCCCCCCCCCC[P+](CCCCCC)(CCCCCC)CCCCCC.N#C[N-]C#N	1.16 ± 0.12	1.24 ± 0.13	1.32 ± 0.14	1.39 ± 0.14
CO [methanol] + CCCCCCCCCCCCCC[P+](CCCCCC)(CCCCCC)CCCCCC.N#C[N-]C#N	0.306 ± 0.04	0.323 ± 0.041	0.344 ± 0.042	0.361 ± 0.044
CCCCCCCCC [nonane] + CCCCCCCCCCCCCC[P+](CCCCCC)(CCCCCC)CCCCCC.N#C[N-]C#N	1.8 ± 0.19	1.93 ± 0.2	2.09 ± 0.22	2.24 ± 0.23
CCCCC [pentane] + CCCCCCCCCCCCCC[P+](CCCCCC)(CCCCCC)CCCCCC.N#C[N-]C#N	1 ± 0.1	1.06 ± 0.11	1.12 ± 0.11	1.19 ± 0.12
CCCO [propan-1-ol] + CCCCCCCCCCCCCC[P+](CCCCCC)(CCCCCC)CCCCCC.N#C[N-]C#N	0.396 ± 0.046	0.41 ± 0.047	0.424 ± 0.049	0.443 ± 0.05
C1CCOC1 [tetrahydrofuran] + CCCCCCCCCCCCCC[P+](CCCCCC)(CCCCCC)CCCCCC.N#C[N-]C#N	0.351 ± 0.043	0.365 ± 0.044	0.384 ± 0.045	0.404 ± 0.047
c1ccsc1 [thiophene] + CCCCCCCCCCCCCC[P+](CCCCCC)(CCCCCC)CCCCCC.N#C[N-]C#N	0.372 ± 0.044	0.383 ± 0.045	0.412 ± 0.048	0.429 ± 0.049
Cc1ccccc1 [toluene] + CCCCCCCCCCCCCC[P+](CCCCCC)(CCCCCC)CCCCCC.N#C[N-]C#N	0.419 ± 0.048	0.458 ± 0.051	0.489 ± 0.054	0.523 ± 0.057
O [water] + CCCCCCCCCCCCCC[P+](CCCCCC)(CCCCCC)CCCCCC.N#C[N-]C#N	1.95 ± 0.2	1.82 ± 0.19	1.73 ± 0.18	1.6 ± 0.17
